# Test results from patent EP0332295A2, “Novel imidazole derivative” (priority 1988, dated 1989).
# System: mice
# Test: Anti-hypoxia action (hypobaric hypoxia, existence time at 180 mmHg, life prolongation ratio)
# Format: in vivo
# Conditions: Mus musculus, ip; male ddy mice, administered in the abdominal cavity at 25 mg/kg, 30 minutes before pressure reduction to 180 mmHg; ratio of existence time to saline control (cut-off 15 minutes)
# Procedure: With respect to each of the above-mentioned compounds (compounds Nos. 1 through 54), the anti-hypoxia action was tested according to the following method and was evaluated by the life prolongation ratio.
# Male mice if the ddy-line, which were 5 to 8 weeks old, were used as test animals, and they were divided into groups, each consisting of 7 to 10 mice. The compound to be tested was dissolved in a physiological saline solution. If the compound to be tested was insoluble, the compound was suspended in 1% gum arabic. The solution or suspension was administered in the abdominal cavity at a does of 25 mg/kg and when 30 minutes had passed from the point of the administration, the mice were independently placed one by one into a desiccator (capacity = 1 liter) and the pressure in the desiccator was reduced to 180 mmHg by a vacuum pump.
# The period of from the point of initiation of the reduction of the pressure to the point of the stop of breathing was regarded as the existence time. When the mouse lived for more than 15 minutes, the calculation was done while regarding the existence time as being 15 minutes.
# The significant difference test of the existence time was carried out according to the student t-test method using controls to which a physiological saline solution alone had been administered. The ratio of the existence time of the sample-administered group to the existence time of the physiological saline solution-administered control group was calculated as the life prolongation ratio.
row,SMILES,response vs control in vivo at 25 mg/kg [%]
1,O=C(Sc1nc(-c2ccccc2)cn1C(=O)N1CCCCC1)N1CCCCC1 [compound 38],113
2,CCOC(=O)n1cc(-c2ccccc2)nc1SC(=O)N(C)C [compound 31],123
3,"CN(C)C(=O)Sc1nc(-c2ccccc2)c[nH]1 [compound 21, 2-(N,N-dimethylcarbamoylthio)-4-phenylimidazole]",283
4,CCCn1cc(-c2ccccc2)nc1SC(=O)N(C)C [compound 24],163
5,Cc1cccc(C)c1Cc1cn(C(=O)N2CCOCC2)cn1 [compound 17],165
6,CN(C)C(=O)Sc1nc(-c2ccccc2)cn1-c1ccccc1 [compound 27],146
7,C=CCN(C)C(=O)n1cnc(Cc2c(C)cccc2C)c1 [compound 11],255
8,Cc1ccccc1-c1c[nH]c(SC(=O)N(C)C)n1 [compound 45],192
9,Cc1cc(C)c(Cc2cn(C(=O)N(C)C)cn2)c(C)c1 [compound 4],184
10,CCN(CC)C(=O)n1cnc(Cc2c(C)cccc2C)c1 [compound 13],281
11,CN(C)C(=O)Sc1nc(-c2ccc(-c3ccccc3)cc2)c[nH]1 [compound 49],127
12,CCOC(=O)c1[nH]c(SC(=O)N(C)C)nc1-c1ccccc1 [compound 44],143
13,CCc1[nH]c(SC(=O)N(C)C)nc1-c1ccccc1 [compound 43],121
14,"Cn1c(=O)sc2nc(-c3ccccc3)cn2c1=O [compound 53, 3-methyl-7-phenyl-1,3,5-thiadiazino[3,2-a]imidazole-2,4(3H)-dione]",145
15,Cc1[nH]c(SC(=O)N(C)C)nc1-c1ccccc1 [compound 42],192
16,CC(=O)n1cc(-c2ccccc2)nc1SC(=O)N(C)C(C)C [compound 33],127
17,CCOC(=O)n1cnc(Cc2c(C)cccc2C)c1 [compound 18],182
18,CON(C)C(=O)n1cnc(Cc2c(C)cccc2C)c1 [compound 12],109

row,SMILES,response vs control in vivo at 25 mg/kg [%]
1,CCn1cc(-c2ccccc2)nc1SC(=O)N(C)C [compound 23],264
2,CN(C)C(=O)Sc1nc(-c2ccccc2)cn1C1CCCCC1 [compound 26],132
3,Cc1cccc(C)c1Cc1cn(C(=S)N(C)C)cn1 [compound 20],243
4,Cc1cccc(C)c1Cc1cn(C(=O)N(C)C(C)C)cn1 [compound 9],466
5,"CN(C)C(=O)Sc1nc(-c2ccccc2)cn1C(=O)N(C)C [compound 30, 1-(N,N-dimethylcarbamoyl)-2-(N,N-dimethylcarbamoylthio)-4-phenylimidazole]",115
6,CN(C)C(=O)Sc1nccn1-c1ccccc1 [compound 50],127
7,CN(C)C(=O)Sc1nc(-c2ccccc2)cn1C [compound 22],230
8,CC(=O)n1cc(-c2ccccc2)nc1SC(=O)N(C)C [compound 32],281
9,"CN(C)C(=O)Sc1nc(-c2ccccc2)cn1-c1ccc([N+](=O)[O-])cn1 [compound 28, 2-(N,N-dimethylcarbamoylthio)-1-(5-nitropyridinyl)-4-phenylimidazole]",102
10,CCn1c(=O)sc2nc(-c3ccccc3)cn2c1=O [compound 54],137
11,Cc1cccc(C)c1Cc1cn(C(=O)N(C)C)cn1 [compound 2],305
12,Cc1cccc(C)c1Cc1cn(C(=O)N2CCCCC2)cn1 [compound 14],270
13,"CN(C)C(=O)n1cnc(Cc2ccccc2)c1 [compound 1, 4-benzyl-1-(N,N-dimethylcarbamoyl)imidazole]",85
14,CC(C)n1cc(-c2ccccc2)nc1SC(=O)N(C)C [compound 25],119
15,CN(C)C(=O)Sc1nc(-c2ccccc2)cn1-c1ncccc1[N+](=O)[O-] [compound 29],110
16,Cc1cccc(C)c1Cc1cn(C(=O)N(C)C2CCCCC2)cn1 [compound 10],253
17,COc1ccc(-c2c[nH]c(SC(=O)N(C)C)n2)cc1 [compound 47],165

# Same assay, conditions: male ddy mice, administered in the abdominal cavity at 25 mg/kg, 30 minutes before pressure reduction to 180 mmHg; ratio of existence time to saline control (cut-off 15 minutes)
row,SMILES,Life Prolongation Ratio
1,CN(C)C(=O)n1cnc(C[n+]2ccccc2)c1 [compound 19],1.09

# System: mice
# Test: as above
# Format: in vivo
# Conditions: Mus musculus, ip; male ddy mice, administration dose = 12.5 mg/kg in the abdominal cavity, 30 minutes before pressure reduction to 180 mmHg; ratio of existence time to saline control
row,SMILES,response vs control in vivo at 12.5 mg/kg [%]
1,O=C(Sc1nc(-c2ccccc2)c[nH]1)N1CCSCC1 [compound 40],93
2,Cc1ccc(-c2c[nH]c(SC(=O)N(C)C)n2)cc1 [compound 46],95
3,O=C(Sc1nc(-c2ccccc2)c[nH]1)N1CCOCC1 [compound 39],104
4,O=C(Sc1nc(-c2ccccc2)c[nH]1)N1CCCc2ccccc21 [compound 41],76
5,CCN(CC)C(=O)Sc1nc(-c2ccccc2)c[nH]1 [compound 34],100
6,O=C(Sc1nc(-c2ccccc2)c[nH]1)N1CCCCC1 [compound 37],85
7,O=C(Sc1nc(-c2ccccc2)c[nH]1)N1CCCC1 [compound 36],94
8,CN(C)C(=O)Sc1nc(-c2ccc(Cl)cc2)c[nH]1 [compound 48],115
9,CCCN(CCC)C(=O)Sc1nc(-c2ccccc2)c[nH]1 [compound 35],87

# Same assay, conditions: Mus musculus, ip; male ddy mice, administration dose = 50 mg/kg in the abdominal cavity, 30 minutes before pressure reduction to 180 mmHg; ratio of existence time to saline control
row,SMILES,response vs control in vivo at 50 mg/kg [%]
1,CN(C)C(=O)Sc1nccn1-c1ccc([N+](=O)[O-])cn1 [compound 51],245
2,CN(C)C(=O)Sc1nccn1-c1ncccc1[N+](=O)[O-] [compound 52],192
